{"source": "ChEMBL document CHEMBL1201862", "about": "“PubChem BioAssay data set” (2004)", "key": {"Cytochrome P450 2D6": {"target": "Cytochrome P450 2D6 (Homo sapiens, UniProt P10635)", "sequence (P10635 whole entry)": "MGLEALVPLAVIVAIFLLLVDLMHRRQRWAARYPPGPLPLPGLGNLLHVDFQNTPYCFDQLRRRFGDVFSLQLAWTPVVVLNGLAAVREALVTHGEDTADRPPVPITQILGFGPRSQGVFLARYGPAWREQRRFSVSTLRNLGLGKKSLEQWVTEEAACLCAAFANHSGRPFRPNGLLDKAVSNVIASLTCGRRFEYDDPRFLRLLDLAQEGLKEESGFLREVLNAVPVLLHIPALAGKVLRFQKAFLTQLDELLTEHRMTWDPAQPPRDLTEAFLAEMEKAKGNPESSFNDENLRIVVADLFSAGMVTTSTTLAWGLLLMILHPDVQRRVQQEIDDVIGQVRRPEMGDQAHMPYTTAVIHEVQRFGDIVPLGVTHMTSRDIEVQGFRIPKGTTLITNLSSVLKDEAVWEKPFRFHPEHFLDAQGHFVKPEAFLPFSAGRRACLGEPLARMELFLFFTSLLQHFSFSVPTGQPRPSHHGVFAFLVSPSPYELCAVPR"}, "Cytochrome P450 2C19": {"target": "Cytochrome P450 2C19 (Homo sapiens, UniProt P33261)", "sequence (P33261 whole entry)": "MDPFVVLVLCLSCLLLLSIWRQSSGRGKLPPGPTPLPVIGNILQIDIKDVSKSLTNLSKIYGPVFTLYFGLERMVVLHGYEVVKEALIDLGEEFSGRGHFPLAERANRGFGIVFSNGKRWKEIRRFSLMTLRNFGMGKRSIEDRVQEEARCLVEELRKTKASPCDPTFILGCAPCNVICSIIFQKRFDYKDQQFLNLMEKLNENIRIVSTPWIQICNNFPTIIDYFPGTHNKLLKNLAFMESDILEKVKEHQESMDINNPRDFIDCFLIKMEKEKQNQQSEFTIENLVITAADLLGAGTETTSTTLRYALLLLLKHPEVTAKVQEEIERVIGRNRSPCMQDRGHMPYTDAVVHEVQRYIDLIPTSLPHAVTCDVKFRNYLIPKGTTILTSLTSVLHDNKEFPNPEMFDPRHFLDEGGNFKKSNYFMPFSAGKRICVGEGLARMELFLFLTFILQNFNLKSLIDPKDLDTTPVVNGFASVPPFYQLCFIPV", "assay": "Cytochrome panel assay with activity outcomes. Panel member name: p450-cyp2c19 Compounds with AC50 equal or less than 10 uM are considered active", "assay_type": "functional"}, "Cytochrome P450 2C9": {"target": "Cytochrome P450 2C9 (Homo sapiens, UniProt P11712)", "sequence (P11712 whole entry)": "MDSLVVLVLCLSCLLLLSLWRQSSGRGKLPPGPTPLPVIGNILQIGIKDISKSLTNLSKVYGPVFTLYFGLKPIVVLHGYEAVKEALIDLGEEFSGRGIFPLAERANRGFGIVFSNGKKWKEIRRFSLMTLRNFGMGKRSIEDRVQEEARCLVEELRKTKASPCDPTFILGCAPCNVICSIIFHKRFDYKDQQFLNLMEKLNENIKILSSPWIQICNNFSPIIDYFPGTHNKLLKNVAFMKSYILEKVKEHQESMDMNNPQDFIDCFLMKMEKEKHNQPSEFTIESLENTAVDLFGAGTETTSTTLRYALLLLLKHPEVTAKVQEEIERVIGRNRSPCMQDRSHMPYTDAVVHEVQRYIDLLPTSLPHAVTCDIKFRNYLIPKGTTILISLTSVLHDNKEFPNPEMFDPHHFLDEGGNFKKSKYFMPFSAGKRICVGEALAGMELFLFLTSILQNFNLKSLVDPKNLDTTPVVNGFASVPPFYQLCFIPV"}, "[1]": {"target": "T1, E3 ubiquitin-protein ligase XIAP (Homo sapiens, UniProt P98170)", "T1 sequence (P98170 whole entry)": "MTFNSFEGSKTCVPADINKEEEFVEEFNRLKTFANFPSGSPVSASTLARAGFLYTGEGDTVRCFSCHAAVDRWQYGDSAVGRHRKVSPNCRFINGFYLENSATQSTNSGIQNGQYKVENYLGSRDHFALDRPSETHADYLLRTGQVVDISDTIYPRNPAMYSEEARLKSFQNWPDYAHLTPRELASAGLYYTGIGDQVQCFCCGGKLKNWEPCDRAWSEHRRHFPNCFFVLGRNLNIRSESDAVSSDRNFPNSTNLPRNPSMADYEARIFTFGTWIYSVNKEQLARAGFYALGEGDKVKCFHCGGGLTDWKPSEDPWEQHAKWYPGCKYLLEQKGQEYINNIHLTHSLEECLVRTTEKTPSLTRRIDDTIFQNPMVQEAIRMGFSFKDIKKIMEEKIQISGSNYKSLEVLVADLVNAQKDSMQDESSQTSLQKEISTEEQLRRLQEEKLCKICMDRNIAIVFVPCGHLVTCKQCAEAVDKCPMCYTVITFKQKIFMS", "assay": "Counter Screen using XIAP-Bir3 for Chemical Antagonists of Bir1/2 domains of IAP-family anti-apoptotic proteins. [Related pubchem assays (depositor defined):AID1018, AID1449, AID1514, AID1638, AID1749, AID1750, AID488957, AID488963]"}, "[2]": {"target": "T1, E3 ubiquitin-protein ligase XIAP", "assay": "XIAP antagonists, biochemical, IAP family, fluorescence polarization (AID 1018)", "assay_type": "functional"}, "Protein RecA": {"target": "T2, Protein RecA (Mycobacterium tuberculosis, UniProt P9WHJ3)", "T2 sequence (P9WHJ3 whole entry)": "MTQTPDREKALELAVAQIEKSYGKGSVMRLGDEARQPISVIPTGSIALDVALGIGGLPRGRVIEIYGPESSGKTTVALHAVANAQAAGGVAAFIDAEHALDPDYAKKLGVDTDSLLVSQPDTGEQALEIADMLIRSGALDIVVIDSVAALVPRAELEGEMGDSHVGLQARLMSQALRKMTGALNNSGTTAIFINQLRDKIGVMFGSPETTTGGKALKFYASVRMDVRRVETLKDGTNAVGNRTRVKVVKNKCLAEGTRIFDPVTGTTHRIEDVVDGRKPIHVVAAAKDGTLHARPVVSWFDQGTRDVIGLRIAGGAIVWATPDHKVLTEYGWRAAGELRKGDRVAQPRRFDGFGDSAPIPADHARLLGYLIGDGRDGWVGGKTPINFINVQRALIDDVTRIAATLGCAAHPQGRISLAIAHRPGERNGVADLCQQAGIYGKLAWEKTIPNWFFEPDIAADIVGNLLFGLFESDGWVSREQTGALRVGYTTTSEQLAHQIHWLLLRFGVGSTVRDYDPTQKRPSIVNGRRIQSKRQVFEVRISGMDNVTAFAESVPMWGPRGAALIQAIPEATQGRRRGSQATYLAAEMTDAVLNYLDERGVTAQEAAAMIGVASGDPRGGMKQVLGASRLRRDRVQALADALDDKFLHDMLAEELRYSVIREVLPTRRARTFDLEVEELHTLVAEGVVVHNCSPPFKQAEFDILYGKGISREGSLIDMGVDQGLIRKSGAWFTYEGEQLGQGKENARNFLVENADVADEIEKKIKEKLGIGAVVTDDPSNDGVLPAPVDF", "assay": "Fluorescence Cell-Free Homogeneous Dose Retest to Identify Inhibitors of RecA-Intein Splicing Activity. [Related pubchem assays (depositor defined):AID2097, AID2223, AID489010, AID492950]", "assay_type": "functional"}, "HEK293 [3]": {"system": "HEK293", "assay": "cells", "assay_type": "functional, cell-based", "details": "Homo sapiens"}, "[4]": {"target": "T3, Replicative DNA helicase DnaB (Mycobacterium tuberculosis, UniProt P9WMR3)", "T3 sequence (P9WMR3 whole entry)": "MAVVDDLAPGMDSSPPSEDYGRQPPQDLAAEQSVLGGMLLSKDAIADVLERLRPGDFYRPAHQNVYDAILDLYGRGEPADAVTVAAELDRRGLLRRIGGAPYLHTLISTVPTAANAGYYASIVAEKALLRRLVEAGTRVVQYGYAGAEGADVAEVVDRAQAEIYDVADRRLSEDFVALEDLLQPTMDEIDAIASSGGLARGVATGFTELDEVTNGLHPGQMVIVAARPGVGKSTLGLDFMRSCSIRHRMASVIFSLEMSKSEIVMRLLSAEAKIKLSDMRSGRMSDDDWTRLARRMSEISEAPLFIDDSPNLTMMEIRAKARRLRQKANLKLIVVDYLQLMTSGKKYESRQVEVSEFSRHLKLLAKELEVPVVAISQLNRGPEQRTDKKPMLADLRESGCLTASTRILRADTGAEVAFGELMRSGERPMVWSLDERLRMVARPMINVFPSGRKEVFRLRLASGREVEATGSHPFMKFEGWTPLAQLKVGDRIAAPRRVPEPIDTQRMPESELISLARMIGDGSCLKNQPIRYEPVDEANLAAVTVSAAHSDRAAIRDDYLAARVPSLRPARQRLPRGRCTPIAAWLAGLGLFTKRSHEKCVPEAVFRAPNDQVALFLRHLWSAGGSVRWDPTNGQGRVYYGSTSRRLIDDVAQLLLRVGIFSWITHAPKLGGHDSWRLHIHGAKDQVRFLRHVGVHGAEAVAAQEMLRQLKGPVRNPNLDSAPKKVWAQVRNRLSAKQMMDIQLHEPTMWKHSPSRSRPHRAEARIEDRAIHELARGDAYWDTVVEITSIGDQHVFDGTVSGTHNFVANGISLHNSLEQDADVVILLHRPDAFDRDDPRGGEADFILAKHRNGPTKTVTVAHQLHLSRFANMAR", "assay": "DnaB intein splicing inhibitors, dose response, biochemical, cell-free fluorescence (AID 449749)", "assay_type": "functional"}, "HEK293 [5]": {"system": "HEK293", "assay": "NOD1 signaling inhibitors, primary screen, cell-based, luminescence, uHTS (AID 1578)", "assay_type": "functional", "details": "Homo sapiens"}, "BJ [6]": {"system": "BJ", "assay": "cytotoxicity toward BJ-TERT-LT-ST fibroblasts, dose response, cell-based, RAS-independent, luminescence (AID 1935);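 also: BJ fibroblasts immortalized with TERT plus LT and ST oncogenes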", "assay_type": "functional", "details": "Homo sapiens"}, "[7]": {"target": "Nucleotide-binding oligomerization domain-containing protein 2 (Homo sapiens, UniProt Q9HC29)", "sequence (Q9HC29 whole entry, the tested form may be a part)": "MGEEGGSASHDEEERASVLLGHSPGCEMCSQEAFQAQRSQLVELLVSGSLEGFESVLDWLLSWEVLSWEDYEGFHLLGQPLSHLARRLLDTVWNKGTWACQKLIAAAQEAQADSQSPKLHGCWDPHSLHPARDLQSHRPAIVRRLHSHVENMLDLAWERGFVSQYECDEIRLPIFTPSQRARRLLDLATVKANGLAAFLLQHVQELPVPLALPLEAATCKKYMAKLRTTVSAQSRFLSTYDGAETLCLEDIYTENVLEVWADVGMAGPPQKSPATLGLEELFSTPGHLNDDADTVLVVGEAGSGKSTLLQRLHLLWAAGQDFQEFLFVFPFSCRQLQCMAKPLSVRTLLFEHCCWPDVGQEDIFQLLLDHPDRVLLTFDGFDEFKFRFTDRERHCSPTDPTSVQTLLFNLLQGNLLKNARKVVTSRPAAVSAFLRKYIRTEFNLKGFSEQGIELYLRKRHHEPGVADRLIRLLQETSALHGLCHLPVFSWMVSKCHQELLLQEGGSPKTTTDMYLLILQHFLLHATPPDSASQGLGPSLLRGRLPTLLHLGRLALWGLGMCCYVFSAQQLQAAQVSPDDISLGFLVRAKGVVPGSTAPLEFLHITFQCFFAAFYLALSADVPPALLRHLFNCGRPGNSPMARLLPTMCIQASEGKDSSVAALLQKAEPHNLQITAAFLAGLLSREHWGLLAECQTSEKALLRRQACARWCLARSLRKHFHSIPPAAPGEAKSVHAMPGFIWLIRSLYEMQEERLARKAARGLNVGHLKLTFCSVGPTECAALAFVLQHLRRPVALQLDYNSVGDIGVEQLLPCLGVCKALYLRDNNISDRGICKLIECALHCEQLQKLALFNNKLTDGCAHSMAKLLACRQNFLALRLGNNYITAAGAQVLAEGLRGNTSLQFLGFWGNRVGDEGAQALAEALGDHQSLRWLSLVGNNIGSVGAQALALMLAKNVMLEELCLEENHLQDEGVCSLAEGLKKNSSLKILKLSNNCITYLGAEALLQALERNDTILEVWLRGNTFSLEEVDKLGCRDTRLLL", "assay": "NOD2 signaling inhibitors, cell-based, luminescence, uHTS, HEK293 (AID 1566)", "assay_type": "functional"}, "HEK293 [8]": {"system": "HEK293", "assay": "cells", "assay_type": "functional, cell-based", "details": "Homo sapiens", "remark": "listed apart in the source"}, "HEK293 [9]": {"system": "HEK293", "assay": "NOD2 signaling inhibitors in MDP-stimulated cells, cell-based, uHTS, luminescence (AID 2001)", "assay_type": "functional", "details": "Homo sapiens"}, "[10]": {"assay": "cytotoxicity toward DRD oncogenic fibroblasts, dose response, cell-based, non-viral oncogenic, luminescence (AID 1934)", "assay_type": "functional", "details": "Homo sapiens"}, "HEK293 [11]": {"system": "HEK293", "assay": "cells", "assay_type": "functional, cell-based", "details": "Homo sapiens", "remark": "listed apart in the source"}, "BJ [12]": {"system": "BJ", "assay": "cells", "assay_type": "functional, cell-based", "details": "Homo sapiens"}, "BJ [13]": {"system": "BJ", "assay": "cytotoxicity toward BJ-TERT fibroblasts, dose response, cell-based, RAS-independent, luminescence (AID 1933)", "assay_type": "functional", "details": "Homo sapiens"}, "Cytochrome P450 3A4": {"target": "Cytochrome P450 3A4 (Homo sapiens, UniProt P08684)", "sequence (P08684 whole entry)": "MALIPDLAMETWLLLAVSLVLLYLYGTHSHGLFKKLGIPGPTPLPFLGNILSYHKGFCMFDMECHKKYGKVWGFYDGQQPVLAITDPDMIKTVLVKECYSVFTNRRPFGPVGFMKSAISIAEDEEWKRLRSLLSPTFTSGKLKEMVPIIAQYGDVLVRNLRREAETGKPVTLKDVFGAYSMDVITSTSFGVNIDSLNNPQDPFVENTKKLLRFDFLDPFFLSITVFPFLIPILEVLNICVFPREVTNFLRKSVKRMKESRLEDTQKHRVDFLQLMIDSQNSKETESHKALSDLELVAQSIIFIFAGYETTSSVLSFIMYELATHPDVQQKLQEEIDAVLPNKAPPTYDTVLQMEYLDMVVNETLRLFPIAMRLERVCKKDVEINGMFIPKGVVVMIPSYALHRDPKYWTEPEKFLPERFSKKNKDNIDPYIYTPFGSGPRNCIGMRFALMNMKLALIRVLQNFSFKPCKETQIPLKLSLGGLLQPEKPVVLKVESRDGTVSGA"}, "[14]": {"system": "Streptococcus sp. 'group A'", "assay": "growth inhibition of control SK(-) GAS strain, dose response, counter-screen for streptokinase expression inhibitor project, luminescence, kanamycin, BacTiterGlo, confirmation (AID 1900)", "assay_type": "functional, organism-based"}, "[15]": {"assay": "cytotoxicity in MIN6 insulinoma cells, dose response, cytotoxicity control, cell-based, mouse insulinoma (AID 2122);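 also: confirmatory high-throughput counterscreen run to flag cytotoxic compounds; mouse MIN-6 beta cells carrying an insulin promoter eGFP reporter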", "assay_type": "functional"}, "Streptokinase A": {"target": "T4, Streptokinase A (Streptococcus pyogenes serotype M1, UniProt P10520)", "T4 sequence (P10520 whole entry)": "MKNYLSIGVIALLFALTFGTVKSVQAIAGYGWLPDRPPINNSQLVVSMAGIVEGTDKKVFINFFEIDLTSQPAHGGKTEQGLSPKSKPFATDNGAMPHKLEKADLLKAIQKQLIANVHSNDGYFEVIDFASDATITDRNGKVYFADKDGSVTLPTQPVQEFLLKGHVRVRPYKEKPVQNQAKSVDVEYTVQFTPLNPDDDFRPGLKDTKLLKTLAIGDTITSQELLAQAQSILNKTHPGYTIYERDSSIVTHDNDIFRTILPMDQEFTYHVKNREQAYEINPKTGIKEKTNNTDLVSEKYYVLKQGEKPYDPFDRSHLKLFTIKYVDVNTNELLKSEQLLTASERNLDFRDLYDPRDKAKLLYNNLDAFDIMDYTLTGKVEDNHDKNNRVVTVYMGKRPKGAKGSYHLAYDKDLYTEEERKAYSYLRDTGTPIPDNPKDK", "assay": "S. pyogenes streptokinase expression inhibitors, potency, dose response, plasminogen activation absorbance, OD405 (AID 1914);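 also: secreted streptokinase activity via plasminogen activation per viability signal from cell pellet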", "assay_type": "functional, Streptococcus pyogenes M1 GAS"}, "Streptococcus": {"system": "Streptococcus", "assay": "Group A Streptococcus viability loss, dose response, counter-screen for streptokinase expression inhibitor project, luminescence, BacTiterGlo (AID 1915);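 also: potency for reduction of bacterial viability or growth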", "assay_type": "functional, organism-based"}, "[16]": {"assay": "insulin promoter down-regulators in MIN6 cells, imaging, high-content screening, mouse beta cells (AID 1628)", "assay_type": "functional"}}, "note": "Activity calls are given as the source filed them."}
{"smiles": "CCOC(=O)c1ccc(NC(=O)C(=O)NCC2CCCO2)cc1", "note": "(configuration not stated)", "values": [{"measurement": "AC50", "setting": "Cytochrome P450 2D6", "value": "inconclusive"}, {"measurement": "AC50", "setting": "Cytochrome P450 2C19; read-out: AC50", "value": "31.6 µM (inconclusive)"}, {"measurement": "AC50", "setting": "Cytochrome P450 2C9", "value": "25.1 µM (inconclusive)"}]}
{"smiles": "CCOC(=O)N1CCC(=NNC(=O)c2ccccc2F)CC1", "values": [{"measurement": "IC50", "setting": "[1]", "value": "> 100 µM (inactive)"}, {"measurement": "IC50", "setting": "[2]", "value": "> 100 µM (not active)"}]}
{"smiles": "Cc1cccc(CN2CCN(C(=O)CCl)CC2)c1", "values": [{"measurement": "EC50", "setting": "Protein RecA", "value": "20.2 µM (active)"}, {"measurement": "IC50", "setting": "HEK293 [3]", "value": "> 20 µM (inactive)"}, {"measurement": "AC50", "setting": "[4]", "value": "21.4 µM (active)"}, {"measurement": "EC50", "setting": "HEK293 [5]", "value": "> 20 µM (inactive)"}, {"measurement": "EC50", "setting": "BJ [6]", "value": "> 150 µM (inconclusive)"}, {"measurement": "EC50", "setting": "[7]", "value": "> 20 µM (inactive)"}, {"measurement": "IC50", "setting": "HEK293 [8]", "value": "> 20 µM (inactive)"}, {"measurement": "IC50", "setting": "HEK293 [9]", "value": "16.7 µM (inactive)"}, {"measurement": "EC50", "setting": "[10]", "value": "31.2 µM (active)"}, {"measurement": "IC50", "setting": "HEK293 [11]", "value": "13.9 µM (active)"}, {"measurement": "EC50", "setting": "BJ [12]", "value": "> 150 µM (not active)"}, {"measurement": "EC50", "setting": "BJ [13]", "value": "9.64 µM (inconclusive)"}]}
{"smiles": "Cc1ccc(NC(=O)NNC(=O)C2CC(c3cccnc3)=NO2)cc1", "note": "(configuration not stated)", "values": [{"measurement": "AC50", "setting": "Cytochrome P450 2D6", "value": "inconclusive"}, {"measurement": "AC50", "setting": "Cytochrome P450 2C19", "value": "inconclusive"}]}
{"smiles": "O=C(COC(=O)C(Cc1ccccc1)NC(=O)c1ccco1)NC1CC1", "note": "(configuration not stated)", "values": [{"measurement": "IC50", "setting": "[1]", "value": "> 100 µM (inactive)"}, {"measurement": "IC50", "setting": "[2]", "value": "> 100 µM (not active)"}]}
{"smiles": "c1ccc2cc(Sc3ncnc4c3oc3ccccc34)ccc2c1", "values": [{"measurement": "AC50", "setting": "Cytochrome P450 3A4", "value": "inconclusive"}]}
{"smiles": "Cc1coc2c1C(=O)C(=O)c1c-2ccc2c(C)cccc12", "note": "[TANSHINONE I]", "values": [{"measurement": "EC50", "setting": "[14]", "value": "4.65 µM (active)"}, {"measurement": "IC50", "setting": "[15]", "value": "2.8 µM (active)"}, {"measurement": "EC50", "setting": "Streptokinase A", "value": "> 150 µM (not active)"}, {"measurement": "EC50", "setting": "Streptococcus", "value": "7.63 µM (active)"}, {"measurement": "IC50", "setting": "[16]", "value": "3.91 µM (active)"}]}
